These results are taken from the supplement of paper PMC10307832.

Test in all cases: relative viability (nuclei count vs DMSO), 5 days (fraction); higher = more cells survive
Compound in the experiment “Sulindac + Dasatinib”: CC1=C(CC(=O)O)c2cc(F)ccc2/C1=C\c1ccc([S+](C)[O-])cc1 [Sulindac] + Cc1nc(Nc2ncc(C(=O)Nc3c(C)cccc3Cl)s2)cc(N2CCN(CCO)CC2)n1 [Dasatinib] (partner 0.075 µM)
A digest of the protocol: (§1)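 For relative viability, nuclei counts in treated wells were divided by those in vehicle wells. Lung cancer cell lines had been pin-tool dosed in 1536-well plates the day after seeding and cultured for 5 days, then fixed and stained in one step (final 0.05% Triton X-100, 1% formaldehyde, 1 ug/ml Hoechst) and imaged at 4×. Doses were one drug alone or a fixed anchor-drug dose plus five library-drug doses (not always all listed) in √10 steps, and values are duplicate-plate medians.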

Compound in experiment [1]: CN[C@@H]1C[C@H]2O[C@@](C)([C@@H]1OC)n1c3ccccc3c3c4c(c5c6ccccc6n2c5c31)C(=O)NC4 [Staurosporine] + O=C(CCCCCCC(=O)Nc1ccccc1)NO [Vorinostat] (partner 1 µM)
Put shortly:
as §1

Compound in the experiment “Staurosporine + Olaparib”: CN[C@@H]1C[C@H]2O[C@@](C)([C@@H]1OC)n1c3ccccc3c3c4c(c5c6ccccc6n2c5c31)C(=O)NC4 [Staurosporine] + O=C(c1cc(Cc2n[nH]c(=O)c3ccccc23)ccc1F)N1CCN(C(=O)C2CC2)CC1 [Olaparib] (partner 8 µM)
Put shortly: as §1

With UMC-11, the relative viability came to 0.613 with Sulindac + Dasatinib (first compound 0.08 µM); 0.531 with Sulindac + Dasatinib (first compound 0.253 µM); 0.362 with Sulindac + Dasatinib (first compound 0.8 µM); 0.46 with Sulindac + Dasatinib (first compound 2.53 µM); 0.507 with Sulindac + Dasatinib (first compound 8 µM); 0.343 in experiment [1] (first compound 0.005 µM). For the same cell line, the relative viability in experiment [1] (first compound 0.01581 µM) stood at 0.136; in experiment [1] (first compound 0.05 µM), 0.0975; in experiment [1] (first compound 0.1581 µM), 0.0825; in experiment [1] (first compound 0.5 µM), 0.066; with Staurosporine + Olaparib (first compound 0.005 µM), 0.375; with Staurosporine + Olaparib (first compound 0.01581 µM), 0.212. Further, the relative viability with Staurosporine + Olaparib (first compound 0.05 µM) is 0.154; with Staurosporine + Olaparib (first compound 0.1581 µM), 0.0879; with Staurosporine + Olaparib (first compound 0.5 µM) it was 0.0921.
